One molecule from patent US20060052447A1, “Novel substituted arylhexadienoic acids and esters thereof which can be used for the treatment and prevention of diabetes, dyslipidaemia and atherosclerosis, pharmaceutical compositios comprising them and processes for the preparation of them” (Merck Patent GmbH, priority 2002, published 2006) can be followed below.

What all share (assay type): cell-based
In experiment [1] the target is T1, chimeric protein PPARγ-Gal4 (Homo sapiens, UniProt P37231).
T1 construct: expressed in transfected cells; host or cells: CV-1 cells (monkey kidney cells)
T1 sequence (P37231 238-503 limits assumed): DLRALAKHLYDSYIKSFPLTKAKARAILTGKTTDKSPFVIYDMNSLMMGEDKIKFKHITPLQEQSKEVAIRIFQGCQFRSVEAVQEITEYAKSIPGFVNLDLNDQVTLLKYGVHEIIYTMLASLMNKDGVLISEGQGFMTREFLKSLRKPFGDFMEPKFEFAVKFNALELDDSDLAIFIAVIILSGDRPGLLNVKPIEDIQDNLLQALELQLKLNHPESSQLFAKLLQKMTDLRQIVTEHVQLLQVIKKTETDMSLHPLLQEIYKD
Nature of the experiment: PPAR activation, Gal4 chimera luciferase reporter in co-transfected CV-1 cells. Particulars: 50 μM; CV-1 cells (monkey kidney cells); 18 hours contact; relative to control cells without product. Here is the method: (§1) The measurement of the PPAR activation was performed according to a technique described by Lehmann et al. (1995, J. Biol. Chem. 270: 12953-12956).
(§2) CV-1 cells (monkey kidney cells) are co-transfected with an expression vector for the chimeric proteins PPARα-Gal4 or PPARγ-Gal4 and with a “reporter” plasmid that allows the expression of the luciferase gene placed under the control of a promoter containing Gal4 response elements.
(§3) The cells are inoculated in 96-well microplates and co-transfected using a commercial reagent with the reporter plasmid (pG5-tk-pGL3) and the expression vector for the chimeric protein (PPARα-Gal4 or PPARγ-Gal4). After incubating for 4 hours, whole culture medium (comprising 10% foetal calf serum) is added to the wells. After 24 hours, the medium is removed and replaced by whole medium comprising the test products (50 μM final).
(§4) The products are left in contact with the cells for 18 hours. The cells are then lysed and the luciferase activity is measured using a luminometer. A PPAR activation factor can then be calculated by means of the activation of the expression of the reporter gene induced by the product (relative to the control cells that have not received any product).

The target in experiment [2] is T2, chimeric protein PPARα-Gal4 (Homo sapiens, UniProt Q07869).
T2 construct: expressed in transfected cells; host or cells: CV-1 cells (monkey kidney cells)
T2 sequence (Q07869 239-466 limits assumed): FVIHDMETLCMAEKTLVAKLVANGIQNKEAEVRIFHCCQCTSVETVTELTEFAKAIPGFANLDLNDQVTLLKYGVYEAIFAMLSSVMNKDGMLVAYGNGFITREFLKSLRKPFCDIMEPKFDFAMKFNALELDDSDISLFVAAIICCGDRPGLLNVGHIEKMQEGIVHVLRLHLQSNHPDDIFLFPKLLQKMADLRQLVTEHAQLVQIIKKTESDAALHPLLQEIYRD
Described as above. The settings on record: 50 μM; CV-1 cells (monkey kidney cells); 18 hours contact; relative to control cells without product. Here is the method: as §1, §2, §3, §4

Experiment [3] addresses T3, vector expressing Gal4 alone (Saccharomyces cerevisiae, UniProt P04386).
T3 construct: expressed in transfected cells; host or cells: CV-1 cells (monkey kidney cells)
The experiment can be described thus: Luciferase reporter control without PPAR ligand binding region in CV-1 cells. Particulars: absence of the binding region for the PPAR α or γ ligand (Gal4 alone). The text has this:
CV-1 cells (monkey kidney cells) are co-transfected with an expression vector for the chimeric proteins PPARα-Gal4 or PPARγ-Gal4 and with a “reporter” plasmid that allows the expression of the luciferase gene placed under the control of a promoter containing Gal4 response elements. The cells are inoculated in 96-well microplates and co-transfected using a commercial reagent with the reporter plasmid (pG5-tk-pGL3) and the expression vector for the chimeric protein (PPARα-Gal4 or PPARγ-Gal4). After incubating for 4 hours, whole culture medium (comprising 10% foetal calf serum) is added to the wells. After 24 hours, the medium is removed and replaced by whole medium comprising the test products (50 μM final). The products are left in contact with the cells for 18 hours. The cells are then lysed and the luciferase activity is measured using a luminometer. A PPAR activation factor can then be calculated by means of the activation of the expression of the reporter gene induced by the product (relative to the control cells that have not received any product). […] In the absence of the binding region for the PPAR α or γ ligand (vector expressing Gal4 alone), the luciferase activity measured in the presence of this product is zero.
Background: A reporter such as luciferase makes a cellular process visible.

T3 sequence (P04386 1-147 limits assumed): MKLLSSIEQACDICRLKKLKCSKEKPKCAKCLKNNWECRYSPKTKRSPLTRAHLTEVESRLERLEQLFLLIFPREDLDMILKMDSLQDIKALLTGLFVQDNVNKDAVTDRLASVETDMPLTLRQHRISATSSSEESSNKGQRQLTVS

For the molecule `CCCC(C=CC(=O)c1cc(OC)ccc1OC)=CC(=O)OCC` [Example 12, ethyl 6-(2,5-dimethoxyphenyl)-6-oxo-3-propylhexa-2,4-dienoate], the “PPAR activation factor (activation of expression of the luciferase reporter gene)” value in experiment [1] is on record as “five”; in experiment [2], “seven”. Further, the “luciferase activity measured in the presence of the product” value in experiment [3] is on record as “zero”.
